These results are taken from patent US20090123445A1, “Surfactin-Containing Compositions for Controlling Scab Disease in Agricultural Products” (priority 2005, published 2009).

In test [1] the test system is plant pathogens. Conditions: surfactin alone; reported in JP 06-135811 A; cited from earlier work.
For test [2], the system named is Streptomyces turgidiscabies 91SY-12. Conditions: 50 μl per paper disk, 30° C., 6 days.
Test [3] has the same test system. Conditions: 10 mg/ml in methanol, 30° C., 11 days. The text has this:
In the same manner as shown in Example 2, the agar medium was smeared with a spore suspension of the strain 91SY-12, and 4 paper disks (8 mm diameter) were placed thereon.

Test [4] shares this test system. Briefly: Antibacterial activity against potato scab pathogen: surfactin sodium in agar medium. Conditions: 30° C., 3 days. The test is classed as cell-based. The procedure: Each agar medium was smeared with a spore suspension of the potato scab pathogen Streptomyces turgidiscabies 91SY-12 (hereinafter referred to as “the strain 91SY-12”) and incubated at 30° C. for 3 days.

Where two headings read alike, the source gives them in different places. Numbered stars: 1 amine (or outer) side, 2 acyl side, 3 side chain; on linkers, the order of the positions; unused ones are H or OH. Bridge positions count the residues as written; N and C are the ends. Square brackets hold non-standard residues; d marks the D form. Peptide text beside a SMILES is read from it. X1 = CC(C)CCCCCCCCC[C@H](CC(=O)[*:1])O[*:2]

Consider surfactin, for which the “antibacterial action against plant pathogens” value in test [1] is “no antibacterial action”. Besides, the “inhibitory effect on spore formation” value in test [2] (0.01 mg/ml in methanol) is recorded as “no inhibitory effect on spore formation”; in test [2] (0.1 mg/ml in methanol), “inhibited, albeit weakly”; in test [2] (1.0 mg/ml in methanol), “inhibited strongly”. Besides, the “inhibition of spore formation” value in test [3] (10 μl per paper disk), in test [3] (50 μl per paper disk) and in test [3] (100 μl per paper disk) was “strongly inhibited” in each case.

As for `CC(C)CCCCCCCCC[C@@H]1CC(=O)N[C@@H](CCC(=O)O)C(=O)N[C@@H](CC(C)C)C(=O)N[C@H](CC(C)C)C(=O)N[C@@H](C(C)C)C(=O)N[C@@H](CC(=O)O)C(=O)N[C@H](CC(C)C)C(=O)N[C@@H](CC(C)C)C(=O)O1` [surfactin sodium] (EL[dL]VD[dL]L; linker N-C via X1), the “inhibition of spore formation” value in test [4] (10 μg/ml in agar medium), in test [4] (50 μg/ml in agar medium) and in test [4] (100 μg/ml in agar medium) was “tendency to inhibit spore formation” each time.
